The structures appear in SMILES notation.

One assay deals with MDA-MB-231 cells. As to the kind of experiment: Immunoblotting for cleaved PARP and caspase 3. It is filed as cell-based, human. The conditions noted are these: 1 μM for 0–24 h or increasing concentration for 2 h. The method, then: These studies were performed as previously described. Details are presented in Supplementary Information, “Methods”.
Aberrantly-active Stat3 promotes tumor cell growth and proliferation, survival, migration, invasion, and metastasis.
These studies were performed as previously described [1 -3] . Briefly, snap-frozen tumor tissues or cultured cells treated or not were harvested and whole-cell or tissue lysates were prepared in radioimmunoprecipitation assay (RIPA) buffer. Samples of equal total protein were subjected to SDS - PAGE and immunoblotting analysis. Primary antibodies used were anti- Stat3, pY705-Stat3, pS727Stat3, […]
Akt, pT202/Y204Erk1/2 (p44/42), Erk1/2, PARP , caspase 3, c-Myc, survivin, VEGF, β-actin, α/β-tubulin, and GAPDH. For the studies of the effects of cell density and confluence on pY705Stat3, cells were seeded […] in culture dishes. The next day, cells were untreated (DMSO control, […]
0.1%) or treated at the same time with 1 or 2 µM H182, allowed to incubate for the indicated time and then harvested for whole-cell lysate preparation and SDS -PAGE / immunoblotting analy sis. […]
concentration of H182 for 6 h and then treated with 0- 100 nM docetaxel or 0-20 µM cisplatin for a total of 72 h. Viable cell numbers were assessed by a CyQuant cell proliferation kit according to the manufacturer’s instructions (Thermo/Life Technologies Corp, Carlsbad, CA). […]

The next assay deals with T1, hERG (Homo sapiens, UniProt Q12809).
T1 construct: Eurofins-CEREP (contract research organisation that ran the assay)
In words: hERG Qpatch assay. Format: cell-based.

For a further assay, the target named is T2, pYStat3C468A (Homo sapiens, UniProt P40763, C468A).
T2 construct: made in house; host or cells: E. coli BL21(DE3) TKB1 (inducible tyrosine kinase)
As to the kind of experiment: EMSA with purified mutant pYStat3C468A. Format: biochemical. The text has this:
This construct was used to generate the mutants, Stat3C328A, Stat3C426A, Stat3C468A, and Stat3C542S, as described in detail in Supplementary Information “Methods”.
The expression of un-phosphorylated and tyrosine phosphorylated His-tagged recombinant wtStat3 and mutant Stat3 proteins in BL21 (DE3) bacterial cells is described in detail in Supplementary Information “Methods”.
Given the MS data, we conducted site-directed mutagenesis analysis for the effects of Cys mutations (Cys-to-Ala or Cys-to-Ser mutations) on the inhibitory activities or potencies of the compounds. […] Purified, phosphorylated wild-type (wt)Stat3, and phosphorylated mutants, Stat3C328A, Stat3C426A, Stat3C468A, and Stat3C542S protein samples of equal amounts were pre-incubated with or without 3 μM H182 for 30 min at room temperature prior to incubation with the radiolabeled hSIE probe that binds Stat3 and subjecting to EMSA analysis. […] Focusing on the C426 and C468, we next conducted dose-response studies for effects of H182 on Stat3C426A and Stat3C468A. […] Equal proteins used in the DNA-binding assay/EMSA analysis are shown by SDS-PAGE Coomassie staining (Fig. 3B, lower). […]
In another case, the nuclear extract was pre-incubated with the radiolabeled probe for 30 min at 30 °C prior to incubation with increasing concentration of H182 at room temperature for 30 min and subjecting to EMSA analysis. Bands corresponding to Stats DNA- binding activities were scanned and quantified using ImageJ and plotted as a percentage of control (vehicle) against the concentration of the inhibitor, from which the IC50 values were derived . […]
These studies were performed as previously reported using the v-Src -transformed NIH3T3/v-Src fibroblasts [1 -5] . […] Luciferase activity was normalized to total protein concentration of cell lysate, which was determined by Bradford assay (Bio-Rad, Hercules, CA) . […]

Assay [1] deals with Stat3-independent pLucSRE luciferase reporter. In words: Stat3-independent luciferase reporter pLucSRE in NIH3T3/v-Src. Format: cell-based, mouse. The conditions noted are these: 1–3 μM H182 for 1 h.

T2 sequence (P40763 127-711 C468A): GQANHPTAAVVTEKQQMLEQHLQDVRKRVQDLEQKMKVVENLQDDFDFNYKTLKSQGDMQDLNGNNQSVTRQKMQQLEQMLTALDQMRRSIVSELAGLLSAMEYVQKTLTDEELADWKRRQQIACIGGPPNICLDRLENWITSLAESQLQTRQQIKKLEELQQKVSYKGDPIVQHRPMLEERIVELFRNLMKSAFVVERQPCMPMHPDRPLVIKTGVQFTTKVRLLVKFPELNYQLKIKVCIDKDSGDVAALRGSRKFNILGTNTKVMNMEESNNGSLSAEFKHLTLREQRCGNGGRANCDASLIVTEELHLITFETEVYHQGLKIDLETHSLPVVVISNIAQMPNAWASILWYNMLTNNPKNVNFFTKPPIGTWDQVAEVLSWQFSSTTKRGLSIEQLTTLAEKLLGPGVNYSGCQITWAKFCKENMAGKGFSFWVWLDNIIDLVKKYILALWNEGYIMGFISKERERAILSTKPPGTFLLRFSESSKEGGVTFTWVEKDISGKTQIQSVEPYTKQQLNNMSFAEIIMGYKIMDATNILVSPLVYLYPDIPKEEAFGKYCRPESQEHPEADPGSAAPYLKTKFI
T1 sequence (Q12809 whole entry): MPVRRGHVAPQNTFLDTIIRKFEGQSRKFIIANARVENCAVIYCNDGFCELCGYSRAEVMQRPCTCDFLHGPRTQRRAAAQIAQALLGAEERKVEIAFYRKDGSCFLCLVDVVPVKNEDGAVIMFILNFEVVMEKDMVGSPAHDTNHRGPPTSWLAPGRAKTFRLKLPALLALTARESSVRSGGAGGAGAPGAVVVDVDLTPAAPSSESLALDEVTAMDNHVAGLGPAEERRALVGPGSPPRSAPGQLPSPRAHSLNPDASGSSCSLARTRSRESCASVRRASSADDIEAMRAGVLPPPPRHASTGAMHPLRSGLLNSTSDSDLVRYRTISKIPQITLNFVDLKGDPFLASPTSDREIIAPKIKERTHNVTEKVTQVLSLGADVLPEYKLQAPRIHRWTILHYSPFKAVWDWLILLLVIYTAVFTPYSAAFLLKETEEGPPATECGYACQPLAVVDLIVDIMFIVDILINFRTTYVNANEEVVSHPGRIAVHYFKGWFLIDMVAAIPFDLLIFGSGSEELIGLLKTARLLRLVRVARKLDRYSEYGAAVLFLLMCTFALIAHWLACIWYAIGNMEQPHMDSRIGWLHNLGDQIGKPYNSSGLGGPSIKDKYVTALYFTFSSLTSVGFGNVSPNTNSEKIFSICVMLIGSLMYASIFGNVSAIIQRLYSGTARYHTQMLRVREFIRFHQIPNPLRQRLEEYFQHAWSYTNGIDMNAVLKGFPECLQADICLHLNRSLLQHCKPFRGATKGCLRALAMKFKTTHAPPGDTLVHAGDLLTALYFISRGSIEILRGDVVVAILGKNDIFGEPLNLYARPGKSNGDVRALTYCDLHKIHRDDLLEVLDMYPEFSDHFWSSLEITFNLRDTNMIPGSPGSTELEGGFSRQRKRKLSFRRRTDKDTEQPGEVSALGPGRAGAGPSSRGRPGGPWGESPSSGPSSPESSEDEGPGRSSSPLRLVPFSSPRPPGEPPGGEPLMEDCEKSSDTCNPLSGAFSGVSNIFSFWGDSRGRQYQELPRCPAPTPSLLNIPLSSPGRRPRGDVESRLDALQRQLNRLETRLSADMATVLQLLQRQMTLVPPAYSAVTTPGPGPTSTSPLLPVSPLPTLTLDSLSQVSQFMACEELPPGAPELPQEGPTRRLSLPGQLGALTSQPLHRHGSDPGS

`O=C([C@H]1CCN1S(=O)(=O)c1c(F)c(F)c(F)c(F)c1F)N(Cc1ccc(C2CCCCC2)cn1)c1ccc2c(=O)[nH]ncc2c1` [Compound H182]: in the assay with MDA-MB-231 cells, the “Cleaved PARP and caspase 3” value is recorded as “moderate levels”. Further, the IC50 was > 10 µM against hERG and 40 µM against pYStat3C468A (EMSA, 0–50 μM H182, 30 min). The “Effect on DNA-binding activity of pYStat3C468A” value at pYStat3C468A (3 μM H182, 30 min) is “unaffected”. Besides, the “Effect on pYStat3C468A activity” value on pYStat3C468A (10 μM H182) was “no effect”. In assay [1], the “Effect on pLucSRE luciferase reporter expression” value is “no changes”.
